Experimental data reported in patent US11111232B2, “Substituted cyclobutylpyridine and cyclobutylpyrimidine compounds as indoleamine 2,3-dioxygenase (IDO) inhibitors” (MERCK SHARP & DOHME CORP., priority 2017, dated 2021).

Legend:
TDO = target: T1, TDO (Homo sapiens, UniProt P48775); assay: TDO cellular assay in frozen SW48 cells; type: cell-based; details: 300 uM L-tryptophan, about 48 hours, fluorescence readout
T1 construct: endogenous in cells; host or cells: SW48 cells (A2780 cells as low-TDO control)
Protocol: TDO Cellular Assay in Frozen SW48 Cells
SW48 cells were cultured in complete RPMI culture medium (90% RPMI, 10% heat-inactivated fetal bovine serum).
Compounds to be tested were serially diluted in ten 3-fold steps in DMSO starting from 10 mM DMSO stocks in Echo low volume plate(s). […] The cells were spun down at 350 g in a table top centrifuge for 5 minutes and suspended in same volume of RPMI assay medium. […] Sterile L-tryptophan (Sigma, Cat #T0254) was added to the cells with final concentration of 300 uM.
SW48 and A2780 cells were dispensed to the respective wells of 384-well assay plates containing the compounds. The plates were incubated for about 48 hours at a 37° C., 5% CO2 incubator. Afterwards, 12 μL of 0.5 M ethyl isonipecotate (Sigma Aldrich, Cat #E33505) in dimethyl sulfoxide were added into each well and the plates were sealed and incubated at 37° C. without CO2 overnight. The plates were centrifuged for 1 minute at 200×g. The resulting fluorescence was measured in a Spectramax plate reader (Molecular Devices) with a 400 nm excitation filter and a 510 nm emission filter.
The fluorescence intensity of each well was corrected for the background observed in wells with A2780 cells and was expressed as a fraction of the intensity observed in wells of SW48 cells and DMSO only. Potencies were calculated by linear least squares fit to the four parameter logistic IC50 equation.

IDO1 = IDO1 (Homo sapiens, UniProt P14902); assay: IDO1 cellular assay in Hela cells stimulated with IFNγ; type: cell-based; details: IFNγ 100 ng/mL, 300 uM L-tryptophan, about 48 hours, fluorescence readout
Protocol: IDO1 Cellular Assay in Hela Cells Stimulated with IFNγ
Hela cells were cultured in complete Hela culture medium (90% EMEM, 10% heat-inactivated fetal bovine serum) and expanded to about 1×10^9 cells. The cells were then collected and frozen down at 1×10^7 cells/vial in 1 mL frozen medium (90% complete Hela culture medium, 10% DMSO)
Compounds to be tested were serially diluted in ten 3-fold steps in DMSO starting from 10 mM DMSO stocks in Echo low volume plate(s).
Frozen Hela cells were thawed and transferred into Hela assay medium (99% complete Hela culture medium, 1% Pen/Strep) with 20 mL medium/vial of cells. The cells were spun down at 250 g in a table top centrifuge for 5 min and suspended in same volume of Hela assay medium. […] Sterile L-tryptophan were added to the cells with final concentration of 300 uM L-tryptophan. A small aliquot (2 mL/plate) of Hela cells were set aside and were not treated with IFNγ, to serve as the Max-E control.
Hela cells with and without IFNγ were dispensed to the respective wells of 384-well assay plates containing the compounds. The plates were incubated for about 48 hours at a 37° C., 5% CO2 incubator. Afterwards, […] of 0.5 M methyl isonipecotate in dimethyl sulfoxide were added into each well and the plates were sealed and incubated at 37° C. without CO2 overnight. The plates were centrifuged for 1 min at 200×g. The resulting fluorescence was measured in a Spectramax plate reader (Molecular Devices) with a 400 nm excitation filter and a 510 nm emission filter.
Potencies were calculated by linear least squares fit to the four parameter logistic IC50 equation.

T1 sequence (P48775 whole entry): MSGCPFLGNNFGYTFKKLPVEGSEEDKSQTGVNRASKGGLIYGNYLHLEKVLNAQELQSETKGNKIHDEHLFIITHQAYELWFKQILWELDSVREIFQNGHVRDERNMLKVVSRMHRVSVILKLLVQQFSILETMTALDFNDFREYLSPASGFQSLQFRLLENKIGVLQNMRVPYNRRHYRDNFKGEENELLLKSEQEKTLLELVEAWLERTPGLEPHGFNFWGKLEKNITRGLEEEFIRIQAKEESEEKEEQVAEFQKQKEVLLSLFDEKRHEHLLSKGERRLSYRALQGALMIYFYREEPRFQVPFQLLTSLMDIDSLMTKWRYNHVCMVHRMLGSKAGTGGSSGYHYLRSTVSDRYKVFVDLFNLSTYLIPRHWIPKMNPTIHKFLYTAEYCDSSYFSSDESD
Sequence of IDO1 (P14902 whole entry): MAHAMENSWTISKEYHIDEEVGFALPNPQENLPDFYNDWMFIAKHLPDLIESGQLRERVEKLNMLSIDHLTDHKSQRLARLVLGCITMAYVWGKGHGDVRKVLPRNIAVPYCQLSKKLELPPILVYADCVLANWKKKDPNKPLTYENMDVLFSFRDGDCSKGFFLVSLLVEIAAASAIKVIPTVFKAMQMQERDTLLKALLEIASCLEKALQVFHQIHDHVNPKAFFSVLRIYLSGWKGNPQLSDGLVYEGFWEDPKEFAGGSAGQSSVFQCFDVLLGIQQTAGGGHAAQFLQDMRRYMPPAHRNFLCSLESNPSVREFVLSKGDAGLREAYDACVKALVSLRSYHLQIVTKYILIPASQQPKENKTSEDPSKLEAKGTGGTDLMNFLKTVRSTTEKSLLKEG

Row | Compound | IC50 (TDO) | IC50 (IDO1)
1 | O=C(Nc1ccc(C2(C(=O)NCCC(F)(F)F)CCC2)cn1)c1cccc(Cl)c1 [Example 3, 3-chloro-N-(5-{1-[(3,3,3-trifluoropropyl)carbamoyl]cyclobutyl}pyridin-2-yl)benzamide] | ≥ 10000 nM | 3 nM
2 | CCCNC(=O)C1(c2ccc(NC(=O)c3cccc(Cl)c3)nc2)CCC1 [Example 4, 3-chloro-N-{5-[1-(propylcarbamoyl)cyclobutyl]pyridin-2-yl}benzamide] | ≥ 10000 nM | 151 nM
3 | O=C(Nc1ccc(C2(C(=O)Nc3ccc(F)nc3)CCC2)cn1)c1cccc(Cl)n1 [Example 6, 6-chloro-N-(5-{1-[(6-fluoropyridin-3-yl)carbamoyl]cyclobutyl}pyridin-2-yl)pyridine-2-carboxamide] | ≥ 10000 nM | 94 nM
4 | Cc1cccc(C(=O)Nc2ccc(C3(C(=O)Nc4ccc(F)nc4)CCC3)cn2)n1 [Example 8, N-(5-{1-[(6-fluoropyridin-3-yl)carbamoyl]cyclobutyl}pyridin-2-yl)-6-methylpyridine-2-carboxamide] | ≥ 10000 nM | 43 nM
5 | O=C(Nc1ccc(C2(C(=O)Nc3ccc(F)cc3)CCC2)cn1)C1CCC(F)(F)CC1 [Example 9, 4,4-difluoro-N-(5-{1-[(4-fluorophenyl)carbamoyl]cyclobutyl}pyridin-2-yl)cyclohexane-1-carboxamide] | ≥ 10000 nM | 56 nM
6 | N#C[C@@H]1CCC[C@H](C(=O)Nc2ccc(C3(C(=O)Nc4ccc(F)cc4)CCC3)cn2)C1 [Example 10, (1S,3R)-3-cyano-N-(5-{1-[(4-fluorophenyl)carbamoyl]cyclobutyl}pyridin-2-yl)cyclohexane-1-carboxamide] | ≥ 10000 nM | 67 nM
7 | CC(C)(C)CCC(=O)Nc1ccc(C2(C(=O)Nc3ccc(F)cc3)CCC2)cn1 [Example 11, 1-{6-[(4,4-dimethylpentanoyl)amino]pyridin-3-yl}-N-(4-fluorophenyl)cyclobutane-1-carboxamide] | ≥ 10000 nM | 96 nM
8 | O=C(CCC1CC1)Nc1ccc(C2(C(=O)Nc3ccc(F)nc3)CCC2)cn1 [Example 12, 1-{6-[(3-cyclopropylpropanoyl)amino]pyridin-3-yl}-N-(6-fluoropyridin-3-yl)cyclobutane-1-carboxamide] | ≥ 10000 nM | 227 nM
9 | N#C[C@@H]1CCC[C@@H](C(=O)Nc2ccc(C3(C(=O)Nc4ccc(F)cc4)CCC3)cn2)C1 [Example 13, (1R,3R)-3-cyano-N-(5-{1-[(4-fluorophenyl)carbamoyl]cyclobutyl}pyridin-2-yl)cyclohexane-1-carboxamide] | ≥ 10000 nM | 236 nM
10 | O=C(Nc1ccc(C2(C(=O)Nc3ccc(F)cc3)CCC2)cn1)c1cc(Cl)ccc1F [Example 16, 5-chloro-2-fluoro-N-(5-{1-[(4-fluorophenyl)carbamoyl]cyclobutyl}pyridin-2-yl)benzamide] | ≥ 10000 nM | 14 nM
11 | CC(C)(C)OC(=O)Nc1ccc(C2(C(=O)Nc3ccc(F)cc3)CCC2)cn1 [Example 19, tert-butyl (5-{1-[(4-fluorophenyl)carbamoyl]cyclobutyl}pyridin-2-yl)carbamate] | ≥ 10000 nM | 103 nM
12 | O=C(Nc1ccc(C2(C(=O)Nc3ccc(F)cc3)CCC2)cn1)c1c(F)ccc(Cl)c1F [Example 21, 3-chloro-2,6-difluoro-N-(5-{1-[(4-fluorophenyl)carbamoyl]cyclobutyl}pyridin-2-yl)benzamide] | ≥ 10000 nM | 94 nM
13 | O=C(Nc1ccc(C2(C(=O)Nc3ccc(F)cc3)CCC2)cn1)c1cc(Cl)ccn1 [Example 26, 4-chloro-N-(5-{1-[(4-fluorophenyl)carbamoyl]cyclobutyl}pyridin-2-yl)pyridine-2-carboxamide] | ≥ 10000 nM | 13 nM
14 | O=C(Nc1ccc(C2(C(=O)Nc3ccc(F)cc3)CCC2)cn1)c1cncc(F)c1 [Example 28, 5-fluoro-N-(5-{1-[(4-fluorophenyl)carbamoyl]cyclobutyl}pyridin-2-yl)pyridine-3-carboxamide] | ≥ 10000 nM | 30 nM
15 | O=C(Nc1ccc(C2(C(=O)Nc3ccc(F)cc3)CCC2)cn1)N1CCCC1 [Example 31, N-(5-{1-[(4-fluorophenyl)carbamoyl]cyclobutyl}pyridin-2-yl)pyrrolidine-1-carboxamide] | ≥ 10000 nM | 145 nM
16 | N#Cc1cncc(C(=O)Nc2ccc(C3(C(=O)Nc4ccc(F)cc4)CCC3)cn2)c1 [Example 32, 5-cyano-N-(5-{1-[(4-fluorophenyl)carbamoyl]cyclobutyl}pyridin-2-yl)pyridine-3-carboxamide] | ≥ 10000 nM | 174 nM
17 | O=C(Nc1ccc(C2(C(=O)NC3CCC(F)(F)CC3)CCC2)cn1)c1cncc(Cl)c1 [Example 33, 5-Chloro-N-(5-(1-((4,4-difluorocyclohexyl)carbamoyl)cyclobutyl)pyridin-2-yl)nicotinamide] | ≥ 10000 nM | 1600 nM
18 | O=C(Nc1ccc(C2(C(=O)Nc3ccc(F)cn3)CCC2)cn1)c1cncc(Cl)c1 [Example 34, 5-chloro-N-(5-{1-[(5-fluoropyridin-2-yl)carbamoyl]cyclobutyl}pyridin-2-yl)pyridine-3-carboxamide] | ≥ 10000 nM | 104 nM
19 | O=C(NC1CCCCC1)c1ccc(C2(C(=O)Nc3ccc(F)cc3)CCC2)cn1 [Example 35, N-cyclohexyl-5-(1-((4-fluorophenyl)carbamoyl)cyclobutyl)picolinamide] | ≥ 10000 nM | 473 nM
20 | O=C(NC1(c2ccc(NC(=O)c3ncco3)cn2)CCC1)c1ccc(Cl)nc1 [Example 39, N-(6-(1-(6-chloronicotinamido)cyclobutyl)pyridin-3-yl)oxazole-2-carboxamide] | ≥ 10000 nM | 921 nM
21 | O=C(NC1(c2ccc(NC(=O)c3nccs3)cn2)CCC1)c1ccc(Cl)nc1 [Example 40, 6-chloro-N-(1-{5-[(1,3-thiazole-2-carbonyl)amino]pyridin-2-yl}cyclobutyl)pyridine-3-carboxamide] | ≥ 10000 nM | 280 nM
22 | O=C(Nc1ccc(C2(NC(=O)c3ccc(Cl)nc3)CCC2)nc1)c1ccnc(Cl)c1 [Example 43, 6-chloro-N-(1-{5-[(2-chloropyridine-4-carbonyl)amino]pyridin-2-yl}cyclobutyl)pyridine-3-carboxamide] | ≥ 10000 nM | 377 nM
23 | O=C(Nc1ccc(C2(NC(=O)c3ccc(Cl)nc3)CCC2)nc1)c1cncc(Cl)c1 [Example 44, 5-chloro-N-(6-{1-[(6-chloropyridine-3-carbonyl)amino]cyclobutyl}pyridin-3-yl)pyridine-3-carboxamide] | ≥ 10000 nM | 131 nM
24 | O=C(Nc1ccc(C2(NC(=O)c3ccc(Cl)nc3)CCC2)nc1)c1ccnc(C(F)(F)F)c1 [Example 45, 6-chloro-N-[1-(5-{[2-(trifluoromethyl)pyridine-4-carbonyl]amino}pyridin-2-yl)cyclobutyl]pyridine-3-carboxamide] | ≥ 10000 nM | 469 nM
25 | N#Cc1cccc(C(=O)Nc2ccc(C3(C(=O)Nc4ccc(F)cc4)CCC3)nc2O)c1 [Example 54, 3-cyano-N-(6-(1-((4-fluorophenyl)carbamoyl)cyclobutyl)-2-hydroxypyridin-3-yl)benzamide] | – | 540 nM
